Values after ≈ are worked out from the molar mass of the structure shown.
What was measured:
[1] = system: Staphylococcus aureus (S. aureus) 29213; experiment: Antibacterial activity, microbroth dilution MIC (Table 1); format: cell-based; settings: microbroth dilution, Gram-positive S. aureus 29213, read-out: MIC, 29213
Summary of the method: (§1)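 Each strain is exposed to test compound in a microbroth dilution series; visible growth is scored macroscopically, and the lowest growth-free concentration is recorded as MIC in μg/mL.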

[2] = system: Escherichia coli (E. coli) BAS849; experiment: as above; format: cell-based; settings: microbroth dilution, super sensitive Gram-negative E. coli BAS849, read-out: MIC, BAS849
Summary of the method: as §1

[3] = system: Klebsiella pneumoniae (K. pneumoniae) 35657; experiment: Antibacterial activity, MIC (Table 4); format: cell-based; settings: K. pneumoniae 35657, read-out: MIC, 35657
Summary of the method: (§2)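 The resistant panel comprises multi-drug resistant clinical isolates. All strains were tested by microbroth dilution, with the MIC in μg/mL taken as the lowest concentration that prevented macroscopically visible growth.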

[4] = system: Acinetobacter baumannii (A. baumannii) BAA747; experiment: Antibacterial activity, MIC (Table 4); format: cell-based; settings: A. baumannii BAA747, read-out: MIC, BAA747
Summary of the method: as §2

[5] = system: Haemophilus influenzae (H. influenzae) 49247; experiment: Antibacterial activity, MIC (Table 6); format: cell-based
Summary of the method: (§3)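 Broth microdilution MIC, read as the lowest drug concentration preventing macroscopically visible growth under test conditions and reported in μg/mL.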

[6] = system: Moraxella catarrhalis (M. catarrhalis) 25238; experiment: Antibacterial activity, MIC (Table 7); format: cell-based
Summary of the method: as §3

[7] = system: Pseudomonas aeruginosa (P. aeruginosa) 27853; experiment: Antibacterial activity, MIC (Table 5); format: cell-based; settings: P. aeruginosa 27853, read-out: MIC, 27853
Summary of the method: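 Activity was measured by microbroth dilution. The MIC, in μg/mL, is the lowest drug concentration that prevents macroscopically visible growth under the test conditions.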

E. coli ELZ4251 = experiment: Antibacterial activity, MIC, multi-drug resistant clinical isolate (Table 3); format: cell-based; settings: Escherichia coli
Summary of the method: (§4)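 Broth microdilution assay; MIC reported in μg/mL as the lowest drug concentration preventing macroscopically visible growth under test conditions.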

E. coli ELZ4000 = experiment: as above; format: cell-based; settings: Escherichia coli, ELZ4000, read-out: MIC ELZ4000
Summary of the method: as §4

E. coli 25922 = experiment: Antibacterial activity, microbroth dilution MIC (Table 1); format: cell-based, Escherichia coli; settings: Escherichia coli; microbroth dilution; control Gram-negative E. coli 25922 strain; read-out: MIC, 25922
Summary of the method: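 Microbroth dilution was used. MIC, in μg/mL, is the lowest drug concentration preventing macroscopically visible growth under the test conditions.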

[8] = system: Neisseria meningitidis (N. meningitidis) 13090; experiment: Antibacterial activity, MIC (Table 8); format: cell-based
Summary of the method: as §3

A. baumannii MXX2240 = experiment: Antibacterial activity, MIC, resistant strain (Table 4); format: cell-based; settings: Acinetobacter baumannii, MXX2240; resistant A. baumannii MMX2240, multi-drug resistant clinical isolate; read-out: MIC, MMX2240
Summary of the method: as §2

K. pneumoniae MXX1232 = experiment: as above; format: cell-based; settings: Klebsiella pneumoniae, MXX1232; resistant K. pneumoniae MMX1232, multi-drug resistant clinical isolate; read-out: MIC, MMX1232
Summary of the method: as §2

E. coli LZ3111 = experiment: Antibacterial activity, MIC, quinolone resistant strain (Table 2); format: cell-based; settings: Escherichia coli, LZ3111, read-out: MIC LZ3111
Summary of the method: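 Microbroth dilution method; MIC (μg/mL) is the lowest drug concentration preventing macroscopically visible growth under test conditions.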

Compound | MIC [1] [µg/mL] | MIC [2] [µg/mL] | MIC [3] [µg/mL] | MIC [4] [µg/mL] | MIC [5] [µg/mL] | MIC [6] [µg/mL] | MIC [7] [µg/mL] | MIC (E. coli ELZ4251) [µg/mL] | MIC (E. coli ELZ4000) [µg/mL] | MIC (E. coli 25922) [µg/mL] | MIC [8] [µg/mL] | MIC (A. baumannii MXX2240) [µg/mL] | MIC (K. pneumoniae MXX1232) [µg/mL] | MIC (E. coli LZ3111) [µg/mL]
CCc1c(-c2ccc3c(c2)cc(CN2CCC[C@H](N)C2)n3C)[nH]c(=O)c(C(=O)O)c1O [Cpd 253, (S)-6-(2-((3-aminopiperidin-1-yl)methyl)-1-methyl-1H-indol-5-yl)-5-ethyl-4-hydroxy-2-oxo-1,2-dihydropyridine-3-carboxylic acid] | 12.5 to 150 (≈ 29.4 to 353 µM) | < 1 | 1 to 3.5 (≈ 2.36 to 8.24 µM) | 12.5 to 150 (≈ 29.4 to 353 µM) | 3.5 to 12.5 (≈ 8.24 to 29.4 µM) | 3.5 to 12.5 (≈ 8.24 to 29.4 µM) | 12.5 to 150 (≈ 29.4 to 353 µM) | 12.5 to 150 (≈ 29.4 to 353 µM) | 12.5 to 150 (≈ 29.4 to 353 µM) | 1 to 3.5 (≈ 2.36 to 8.24 µM) | 1 to 3.5 (≈ 2.36 to 8.24 µM) | 12.5 to 150 (≈ 29.4 to 353 µM) | 12.5 to 150 (≈ 29.4 to 353 µM) | 3.5 to 12.5 (≈ 8.24 to 29.4 µM)
CCc1c(-c2ccc3c(c2)cc(CN2CCC(NC)CC2)n3C)[nH]c(=O)c(C(=O)O)c1O [Cpd 256, 5-ethyl-4-hydroxy-6-(1-methyl-2-((4-(methylamino)piperidin-1-yl)methyl)-1H-indol-5-yl)-2-oxo-1,2-dihydropyridine-3-carboxylic acid] | 3.5 to 12.5 (≈ 7.98 to 28.5 µM) | < 1 | 1 to 3.5 (≈ 2.28 to 7.98 µM) | 12.5 to 150 (≈ 28.5 to 342 µM) | 1 to 3.5 (≈ 2.28 to 7.98 µM) | 1 to 3.5 (≈ 2.28 to 7.98 µM) | 3.5 to 12.5 (≈ 7.98 to 28.5 µM) | 12.5 to 150 (≈ 28.5 to 342 µM) | 12.5 to 150 (≈ 28.5 to 342 µM) | 1 to 3.5 (≈ 2.28 to 7.98 µM) | 1 to 3.5 (≈ 2.28 to 7.98 µM) | 12.5 to 150 (≈ 28.5 to 342 µM) | 12.5 to 150 (≈ 28.5 to 342 µM) | 1 to 3.5 (≈ 2.28 to 7.98 µM)
CCc1c(-c2ccc3c(c2)cc(CN2CCC[C@H](NC)C2)n3C)[nH]c(=O)c(C(=O)O)c1O [Cpd 257, (S)-5-ethyl-4-hydroxy-6-(1-methyl-2-((3-(methylamino)piperidin-1-yl)methyl)-1H-indol-5-yl)-2-oxo-1,2-dihydropyridine-3-carboxylic acid] | 12.5 to 150 (≈ 28.5 to 342 µM) | < 1 | 3.5 to 12.5 (≈ 7.98 to 28.5 µM) | 12.5 to 150 (≈ 28.5 to 342 µM) | 3.5 to 12.5 (≈ 7.98 to 28.5 µM) | 3.5 to 12.5 (≈ 7.98 to 28.5 µM) | 12.5 to 150 (≈ 28.5 to 342 µM) | 12.5 to 150 (≈ 28.5 to 342 µM) | 12.5 to 150 (≈ 28.5 to 342 µM) | 3.5 to 12.5 (≈ 7.98 to 28.5 µM) | 1 to 3.5 (≈ 2.28 to 7.98 µM) | 12.5 to 150 (≈ 28.5 to 342 µM) | 12.5 to 150 (≈ 28.5 to 342 µM) | 3.5 to 12.5 (≈ 7.98 to 28.5 µM)
CCc1c(-c2ccc3c(c2)cc(CNC2(C)CC2)n3C)[nH]c(=O)c(C(=O)O)c1O [Cpd 275, 5-ethyl-4-hydroxy-6-(1-methyl-2-((1-methylcyclopropylamino)methyl)-1H-indol-5-yl)-2-oxo-1,2-dihydropyridine-3-carboxylic acid] | 3.5 to 12.5 (≈ 8.85 to 31.6 µM) | < 1 | 1 to 3.5 (≈ 2.53 to 8.85 µM) | < 1 | < 1 | < 1 | 3.5 to 12.5 (≈ 8.85 to 31.6 µM) | 1 to 3.5 (≈ 2.53 to 8.85 µM) | 1 to 3.5 (≈ 2.53 to 8.85 µM) | < 1 | < 1 | < 1 | 12.5 to 150 (≈ 31.6 to 379 µM) | < 1
CCc1c(-c2ccc3c(c2)cc(CN2C[C@H]4CC[C@@H](N)[C@H]4C2)n3C)[nH]c(=O)c(C(=O)O)c1O [Cpd 276, 6-(2-(((3aR,4R,6aS)-4-aminohexahydrocyclopenta[c]pyrrol-2(1H)-yl)methyl)-1-methyl-1H-indol-5-yl)-5-ethyl-4-hydroxy-2-oxo-1,2-dihydropyridine-3-carboxylic acid] | 3.5 to 12.5 (≈ 7.77 to 27.7 µM) | < 1 | 1 to 3.5 (≈ 2.22 to 7.77 µM) | 12.5 to 150 (≈ 27.7 to 333 µM) | 1 to 3.5 (≈ 2.22 to 7.77 µM) | 1 to 3.5 (≈ 2.22 to 7.77 µM) | 12.5 to 150 (≈ 27.7 to 333 µM) | 12.5 to 150 (≈ 27.7 to 333 µM) | 12.5 to 150 (≈ 27.7 to 333 µM) | 1 to 3.5 (≈ 2.22 to 7.77 µM) | < 1 | 12.5 to 150 (≈ 27.7 to 333 µM) | 12.5 to 150 (≈ 27.7 to 333 µM) | 3.5 to 12.5 (≈ 7.77 to 27.7 µM)
C#CCNCc1cc2cc(-c3[nH]c(=O)c(C(=O)O)c(O)c3CC)ccc2n1C.Cl [Cpd 277, 5-ethyl-4-hydroxy-6-(1-methyl-2-((prop-2-ynylamino)methyl)-1H-indol-5-yl)-2-oxo-1,2-dihydropyridine-3-carboxylic acid hydrochloride] | 1 to 3.5 | < 1 | 1 to 3.5 | 1 to 3.5 | < 1 | < 1 | 12.5 to 150 | 3.5 to 12.5 | 12.5 to 150 | < 1 | < 1 | 12.5 to 150 | 12.5 to 150 | 1 to 3.5
